Results reported in patent publication US8017828B2, “Utilization of rare sugars in plant or microorganism” (Shikoku Research Institute Incorporated, priority 2004, dated 2011).
Where two headings read alike, the source gives them in different places.

Key:
Type in all cases: in vivo
lipoxygenase gene = assay: Northern blotting of lipoxygenase gene expression in sprayed cut leaves of rough lemon; details: 0.5 mM sprayed on cut leaves, 2 to 48 hours
Description: Cut leaves of rough lemon were treated by spraying each of 0.5 mM L-psicose, L- & D-tagatose and D-sorbose thereon and were let stand for 2, 4, 6, 12, 24 and 48 hours at 24° C. under the dark condition in a moist chamber. Then, from the treated leaves, total RNA was extracted and the expression of genes of lipoxygenase and chitinase was analyzed by Northern blotting. The assays and analyses were repeated at least 3 times in all the treated plots, and equivalent results were obtained.

Vitis vinifera L. = system: Vitis vinifera L.
Description: Matured branches of “V. vinifera L.” grown outdoors were collected on December 25 during the dormant stage and were prepared to have one bud, and then, each cutting base was immersed in a 0.01, 0.1 or 1% aqueous solution of D-psicose for 24 hours. On the following day December 26, the same procedure as in 1 was carried out. In a control plot, distilled water was used, and to the liquid for treatment, Approach BI was not added. The judgment of bud flush was carried out in accordance with the method in 1. The measurement of bud flush was carried out on about a weekly basis.
In the survey of the bud flush rate, 9 cuttings were used for each plot and the procedure was repeated twice and an average was obtained.

[1] = system: PBZ1, chitinase gene (PCG3), PAL gene; assay: Northern blot of genes related to resistance in rice after D-psicose treatment
Description: A seedling of a rice plant (variety: Nihonbare, see FIG. 10, the middle of the photograph, the white bar: 5 mm) at day 5 after sowing was used for an experiment. The rice seedling was raised by hydroponic culture in a pot using Kimura B solution. The Kimura B solution was supplemented with D-psicose at each concentration. While the solution was replaced with the same solution every 5 days, cultivation was carried out for 10 days. Thereafter, the seedling was transplanted to a pot filled with soil, and then, cultivation was carried out with natural light in a glass chamber for 7 days. Then, total RNA was extracted and a Northern blot analysis was carried out.

Fusarium oxysporum = assay: Table 12: plants with or without Fusarium oxysporum, seed and medium treated with D-psicose
[2] = system: eggplant plant (variety: “Senryo NiGo”); assay: Spraying of sugar solution during eggplant cultivation; details: 0.2% (w/v) sprayed weekly
Description: In the process of cultivation of eggplant, an effect of spraying D-psicose was examined.
An eggplant plant (variety: “Senryo NiGo”) was used in an experiment. Eggplant seedlings were transplanted for permanent planting to No. 7 unglazed pots filled with “Hana to Yasai no Tsuchi (garden soil for flowers and vegetables)” and a cultivation test was carried out in a vinyl house equipped with a heating device. As a fertilizer, 4 granules of IB compound fertilizer per pot were given around the roots, and irrigation was carried out by automatically feeding 500 ml of water twice a day. During the cultivation, on a weekly basis, water, a 0.2% (w/v) D-glucose solution or a 0.2 (w/v) D-psicose solution was sprayed onto the whole plant. As for the number of eggplant plants, 10 plants were used for each group, and the cultivation was carried out twice, i.e., in summer (from May 14 to Jul. 15, 2004) and in winter (from Nov. 4, 2004 to Feb. 24, 2005). A survey was carried out with regard to the growth conditions during the cultivation and yield of fruits.

[3] = system: tomato plant (variety: “House Momotaro”); assay: Germination of D-psicose treated tomato seeds on agar without Fusarium oxysporum; details: no Fusarium oxysporum; D-psicose seed 0.05%, medium non
Description: To be more specific, seeds of a tomato plant (variety: “House Momotaro”) were subjected to an immersion treatment by immersing them in a D-psicose solution at a concentration of from 0.01% (w/v) to 0.1% (w/v) for 15 minutes while stirring slowly, followed by air-drying on sterile gauze, and then used as treated seeds. […] At this time, test plots in which D-psicose was added to the agar medium at a concentration of from 0.01% (w/v) to 0.1% (w/v) were prepared. Then, the dishes were placed at 23° C. under the dark condition for 7 days to 10 days, and observation was carried out with regard to the elongation of shoot, the elongation of root, the shoot development rate, the infection state in root and the like.

[4] = 0.5 mM for 10 days, 1 week after transplanting
[5] = Fusarium oxysporum added, D-psicose seed 0.01%, medium 0.01%
[6] = Fusarium oxysporum added, D-psicose seed 0.01%, medium non
[7] = Fusarium oxysporum added, D-psicose seed 0.10%, medium 0.10%
[8] = Fusarium oxysporum added, D-psicose seed 0.10%, medium non
[9] = Fusarium oxysporum without addition, D-psicose seed 0.10%, medium non

For O=C(CO)[C@H](O)[C@H](O)[C@H](O)CO [D-psicose], the “induction of the expression of lipoxygenase gene, persistency” value (lipoxygenase gene) was “maintained for the longest time”, the bud flush rate (Vitis vinifera L.; 0.01%) was “a similar pattern to that of the control plot” and the bud flush rate (Vitis vinifera L.; 0.1%, throughout the whole period) was “the lowest value”. The bud flush rate (Vitis vinifera L.; 1%, after the mid-February) was “the highest value”, the “bud flush rate compared with control plot” value (Vitis vinifera L.; all plots (0.01, 0.1, 1%), until early February) was “lower” and the “state of green branches of grapes in summer after treatment” value (Vitis vinifera L.; in vivo) was “withered and dead”. For the same compound, the “expression of genes related to rice disease resistance in leaves” value ([1]; 0.5 mM 10 days, then one week in soil without D-psicose) was “induction”, the “induction of PBZ1” value [1, 4] was “strongly observed” and the “induction of chitinase gene (PCG3)” value [1, 4] was “strongly observed”. For the same compound, the “effect on PAL gene” value ([1]; constantly expressed gene) was “no effect”, the “expression of PBZ1 and chitinase gene (PCG3)” value ([1]; treated plots of from 0.0005 to 0.1 mM) was “not expressed” and the Aerial part weight (Fusarium oxysporum; [5]) was 3.1 g. It also gave a Leaf browning ratio (Fusarium oxysporum; [5]) of 5%, a Plant length (Fusarium oxysporum; [5]) of 17.6 cm and a Survival rate (Fusarium oxysporum; [5]) of 50%. The “Vascular bundle browning ratio” value (Fusarium oxysporum; [5]) was 45%, the Aerial part weight (Fusarium oxysporum; [6]) was 1.9 g and the Leaf browning ratio (Fusarium oxysporum; [6]) was 100%. For the same compound, the Plant length (Fusarium oxysporum; [6]) was 14.5 cm, the Survival rate (Fusarium oxysporum; [6]) was 28% and the “Vascular bundle browning ratio” value (Fusarium oxysporum; [6]) was 39%. For the same compound, the Aerial part weight (Fusarium oxysporum; [7]) was 3.3 g, the Leaf browning ratio (Fusarium oxysporum; [7]) was 13% and the Plant length (Fusarium oxysporum; [7]) was 13.8 cm. For the same compound, the Survival rate (Fusarium oxysporum; [7]) was 25%, the “Vascular bundle browning ratio” value (Fusarium oxysporum; [7]) was 38% and the Aerial part weight (Fusarium oxysporum; [8]) was 2.2 g. The Leaf browning ratio (Fusarium oxysporum; [8]) was 100%, the Plant length (Fusarium oxysporum; [8]) was 13.9 cm and the Survival rate (Fusarium oxysporum; [8]) was 16%. The “Vascular bundle browning ratio” value (Fusarium oxysporum; [8]) was 60%, the Aerial part weight (Fusarium oxysporum; [9]) was 2.2 g and the Leaf browning ratio (Fusarium oxysporum; [9]) was 0%. For the same compound, the Plant length (Fusarium oxysporum; [9]) was 17.8 cm, the Survival rate (Fusarium oxysporum; [9]) was 100% and the “Vascular bundle browning ratio” value (Fusarium oxysporum; [9]) was 0%. For the same compound, the “significant effect of spraying on cultivation” value ([2]; summer) was “not observed”, the “growth (aerial part weight and underground part weight)” value ([2]; winter) was “promotion of the growth” and the yield of fruits ([2]; winter) was “increase”. It also gave a Root length [3] of 7.4 cm and a Shoot length [3] of 6.7 cm.
